Source: US10428086B2, “Solvated crystal form of rifaximin, production, compositions and uses thereof” (ALFASIGMA S.p.A., priority 2014, dated 2019)

Assays:
[1] = Dissolution rate at neutral pH (phosphate buffer pH 6.8); format: physicochemical; conditions: for Concentration: 500 mg in 750 ml phosphate buffer pH 6.8, 30°C, 250 rpm
Protocol: An amount of 500 mg of rifaximin τ, 500 mg of rifaximin polymorph α, and 500 mg of amorphous rifaximin were suspended, respectively, in 750 ml of phosphate buffer at pH 6.8 at a temperature of 30±0.5° C. The solutions were stirred for 120 minutes at a stirring rate of 250 rpm. Samples with equal volume were taken at fixed time intervals, filtered and analyzed by spectrophotometer at a wavelength of 430 nm. The rifaximin concentration in the samples was calculated compared to a solution having a known concentration.

[2] = PK / bioavailability study on dogs; format: in vivo, Beagle male dogs; conditions: single oral capsule 100 mg/kg, plasma; for tmax: median values
Protocol: A bioavailability study of rifaximin τ in comparison with rifaximin amorphous and rifaximin polymorph alpha has been carried out on 4 Beagle male dogs, by feeding them a dose of 100 mg/kg of one of the polymorphs or amorphous form. Each animal received a single oral capsule of rifaximin τ, amorphous rifaximin, and rifaximin α with a washout period of seven days between the administration of each form to the same animal. Doses were administered with a […] gelatine capsule followed by 10 ml of drinking water.
Blood was taken at 6 time points up to 24 hours post dose and it was collected into tubes containing lithium heparin anticoagulant.
The plasma has been assayed for rifaximin on the validated LC-MS/MS (Liquid Chromatography-Mass Spectrometry/Mass Spectrometry) method and the maximum plasma concentration observed (Cmax), the time to reach the (Cmax), (tmax), and the area under the concentration-time curve (AUC) have been calculated.

[3] = Stability in different humidity environments (XRPD); format: physicochemical; conditions: for Stability of crystal form (XRPD pattern after exposure): 10 days; for Stability on exposure to humidity: humidity levels about 10% to about 90%, about 1 hour to about 10 days
From the text: a) The rifaximin τ obtained according to Example 1 was exposed at room temperature to a humidity level of 11%, obtained by means of a saturated solution of LiCl, for a period of time of 10 days.
b) Another crystal of rifaximin τ was exposed to a humidity level of 84%, obtained with a supersaturated aqueous solution of KCl for 10 days.

[4] = per oral route; cited from earlier work
[5] = Determination of intrinsic dissolution (European Pharmacopeia Ed. 7.0, 2.9.3); format: physicochemical; conditions: for Intrinsic dissolution: powder of Example 5, Eur. Pharm. 7.0, 2.9.3
Protocol: The determination of the intrinsic dissolution of the powder, which was obtained according to what is described in Example 5, was carried out according to European Pharmacopeia Ed. 7.0, 2010, 2.9.3, page 256, (the disclosure of which is incorporated herein by reference in its entirety), comparing the new crystal of rifaximin τ and amorphous rifaximin and rifaximin polymorph β.

Row | Concentration ([1]; 5 min) [ng/mL] | Concentration ([1]; 15 min) [ng/mL] | Concentration ([1]; 30 min) | Concentration ([1]; 60 min) [ng/mL] | Concentration ([1]; 120 min) [ng/mL] | AUC 0-8h [2] [ng·h/mL] | AUC 0-tlast [2] [ng·h/mL] | Cmax [2] [ng/mL] | tmax [2] [h] | Intrinsic dissolution [5] [mg/min/cm^2] | Compound | other results
1 | 14400 | 44000 | 28700 ng/mL | 11000 | 9100 | 1318.02 ± 1975.04 | 2337.16 ± 3223.76 | 279.79 ± 378.41 | 3 | 0.131 | CO[C@H]1/C=C/O[C@@]2(C)Oc3c(C)c(O)c4c(O)c(c5c(nc6cc(C)ccn65)c4c3C2=O)NC(=O)/C(C)=C\C=C\[C@H](C)[C@H](O)[C@@H](C)[C@@H](O)[C@@H](C)[C@H](OC(C)=O)[C@@H]1C [Amorphous rifaximin, rifaximin] | Effect of added DEGME on measured dissolved rifaximin ([5]; addition of 0.1 ml and 1.25 ml DEGME to the solution contacting the tablet): does not change the measured value of the dissolved rifaximin
2 | – | – | – | – | – | – | – | – | – | 0.016 | CO[C@H]1/C=C/O[C@@]2(C)Oc3c(C)c(O)c4c(O)c(c5c(nc6cc(C)ccn65)c4c3C2=O)NC(=O)/C(C)=C\C=C\[C@H](C)[C@H](O)[C@@H](C)[C@@H](O)[C@@H](C)[C@H](OC(C)=O)[C@@H]1C [Rifaximin polymorph β, rifaximin] | –

Second part, the molecule before the results:

Row | Compound | Concentration ([1]; 5 min) [ng/mL] | Concentration ([1]; 15 min) [ng/mL] | Concentration ([1]; 30 min) | Concentration ([1]; 60 min) [ng/mL] | Concentration ([1]; 120 min) [ng/mL] | AUC 0-8h [2] [ng·h/mL] | AUC 0-tlast [2] [ng·h/mL] | Cmax [2] [ng/mL] | tmax [2] [h] | Intrinsic dissolution [5] [mg/min/cm^2] | other results
3 | CO[C@H]1/C=C/O[C@@]2(C)Oc3c(C)c(O)c4c(O)c(c5c(nc6cc(C)ccn65)c4c3C2=O)NC(=O)/C(C)=C\C=C\[C@H](C)[C@H](O)[C@@H](C)[C@@H](O)[C@@H](C)[C@H](OC(C)=O)[C@@H]1C [Rifaximin τ, rifaximin] | 21680 | 57680 | higher than 90 μg/ml | 43140 | 14930 | – | – | – | – | – | Concentration relative to rifaximin polymorph α ([1]; aqueous solution): about 25 times; Concentration relative to amorphous rifaximin ([1]; pH 6.8, after about 30 minutes): about five times higher; Concentration relative to rifaximin polymorph α or β ([1]; pH 6.8, after about 30 minutes): about twenty times higher; AUC 0-8h ([2]; listed as rifaximin τ): 0 to 35 ng·h/mL; AUC 0-tlast ([2]; listed as rifaximin τ): 20 to 325 ng·h/mL; Cmax ([2]; listed as rifaximin τ): 0 to 35 ng/mL; AUC 0-8h ([2]; listed as τ): 19.93 ± 10.25 ng·h/mL; AUC 0-tlast ([2]; listed as τ): 150.54 ± 172.55 ng·h/mL; Cmax ([2]; listed as τ): 15.70 ± 18.63 ng/mL; tmax ([2]; listed as rifaximin τ): 3 to 7 h; tmax ([2]; listed as τ): 5 h; Stability of crystal form (XRPD pattern after exposure) ([3]; humidity level 11% (saturated LiCl), room temperature): correspond to the X-ray diffraction pattern of FIG. 1; Stability of crystal form (XRPD pattern after exposure) ([3]; humidity level 84% (supersaturated KCl)): correspond to the X-ray diffraction pattern of FIG. 1; Stability on exposure to humidity [3]: does not alter its chemical structure; Stability on exposure to humidity ([3]; listed as rifaximin τ): does not transform its crystallographic parameters and X-ray diffractogram
4 | CCOCCOCCO [DEGME, 2-(2-ethoxyethoxy)ethanol] | – | – | – | – | – | – | – | – | – | – | NOAEL (No Observed Adverse Effect Level) [4]: higher than 160 mg/kg of body mass
5 | CO[C@H]1/C=C/O[C@@]2(C)Oc3c(C)c(O)c4c(O)c(c5c(nc6cc(C)ccn65)c4c3C2=O)NC(=O)/C(C)=C\C=C\[C@H](C)[C@H](O)[C@@H](C)[C@@H](O)[C@@H](C)[C@H](OC(C)=O)[C@@H]1C [Rifaximin α, rifaximin] | 1050 | 3260 | 4230 ng/mL | 4120 | 3890 | 7.20 ± 4.00 | 16.86 ± 13.99 | 2.84 ± 1.26 | 1 | – | –
